Test results as given in patent US20050267195A1, “Drug composition for blood sugar control” (priority 2002, published 2005).
Counter-ions that a name gives are not always drawn.

Key:
[1] = tested on: type II diabetic patients; experiment: Clinical study in type II diabetic patients; type: in vivo, human
Protocol: Using the pharmaceutical composition described in Example 1, a clinical study was conducted in type II diabetic patients under the following conditions.
Test drug and Mode of administration: Every patient orally administered either of a combination selected from the following combination groups (one tablet from each) three times a day just before meals (within 5 minutes before starting meal): • The present invention group: (1)+(4) • Positive control group: (2)+(3) • Positive control group: (3)+(4) • (1) a tablet comprising 10 mg of mitiglinide calcium salt hydrate; • (2) a tablet comprising 0.2 mg of voglibose (chemical name: (+)-1L-[1(OH),2,4,5/3]-5-[2-hydroxy-1-(hydroxymethyl)ethyl]amino-1-C-(hydroxymethyl)-1,2,3,4-cyclohexaneterol); • (3) a placebo tablet of mitiglinide calcium salt hydrate not containing any active ingredient; and • (4) a placebo tablet of voglibose not containing any active ingredient. • Treatment period: 12 weeks • Observation item: The following items were measured before administration, at a certain fixed time after the start of administration and at the completion of administration, and their changes were calculated, or the frequency of adverse drug reactions was calculated, and then evaluated.

healthy male adults = experiment: Clinical study on administration timing; type: in vivo, human
Protocol: Administration timing before taking a meal was evaluated in healthy male adults. Used test drugs were a tablet comprising 10 mg of mitiglinide calcium salt hydrate and a placebo tablet. The tablet comprising 10 mg of mitiglinide calcium salt hydrate was administered at 0.5 min, 5 min, 10 min or 30 min before starting meal (Positive group), while the placebo tablet was administered at 0.5 min before starting meal. After administration, blood glucose levels were measured at starting meal and evaluated.

[2] = in comparison with voglibose and placebo

SMILES	effect on HbA1C value (in words) ([1]; after 4 weeks after the start of administration, in comparison with voglibose and placebo)	frequencies of hypoglycemic symptoms and gastrointestinal disorders (in words) ([1]; human, in vivo)	effect on 1 hour and 2 hour values of postprandial plasma glucose (PPG) (in words) [1, 2]	effect on early morning fasting plasma glucose (FPG) (in words) [1, 2]	blood glucose level at starting meal (in words) (healthy male adults; administered at 30 minutes before starting meal)	blood glucose level at starting meal (in words) (healthy male adults; administrated within 10 minutes before starting meal)	Change in 2 hour value of PPG, mean value ([1]; final evaluation, three times a day just before meals, 12 weeks) [mg/dL]	effect on HbA1C value (in words) ([1]; in comparison with placebo)
O=C(O)[C@H](CC(=O)N1C[C@H]2CCCC[C@H]2C1)Cc1ccccc1 [mitiglinide calcium salt hydrate, (+)-monocalcium bis[(2S,3a,7a-cis)-α-benzylhexahydro-γ-oxo-2-isoindolinebutyrate] dihydrate]	significantly lowered HbA1C value	decreased the frequencies of hypoglycemic symptoms and gastrointestinal disorders	significantly lowered 1 hour and 2 hour values of postprandial plasma glucose (PPG)	significantly lowered early morning fasting plasma glucose (FPG)	notably declined	able to maintain good blood glucose level		
OCC(CO)N[C@H]1C[C@](O)(CO)[C@@H](O)[C@H](O)[C@H]1O [voglibose, (+)-1L-[1(OH),2,4,5/3]-5-[2-hydroxy-1-(hydroxymethyl)ethyl]amino-1-C-(hydroxymethyl)-1,2,3,4-cyclohexaneterol, reference compound]							-5.1	significantly lowered HbA1C value
